Several values for one entry are separate records, joined by “and”; a condition that tells them apart may be missing. Identical values can stand only once.
Assays:
Experiment in all cases: Kinase inhibition screen, cell-free 33P ATP assay at 10 μM
Assay type in all cases: biochemical
[1] = target: 140 purified human kinases (Homo sapiens, UniProt P36507)
Method in brief: (§1)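 Each complex tested in duplicate at 10 μM; cell-free radiometric assay using ^33P ATP on purified enzymes. Hits mapped by HGNC symbol onto the kinome tree.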

[2] = target: 140 purified human kinases (Homo sapiens, UniProt P49760)
Method in brief: as §1

[3] = target: T1, 140 purified human kinases (Homo sapiens, UniProt P54762)
T1 sequence (P54762 18-984): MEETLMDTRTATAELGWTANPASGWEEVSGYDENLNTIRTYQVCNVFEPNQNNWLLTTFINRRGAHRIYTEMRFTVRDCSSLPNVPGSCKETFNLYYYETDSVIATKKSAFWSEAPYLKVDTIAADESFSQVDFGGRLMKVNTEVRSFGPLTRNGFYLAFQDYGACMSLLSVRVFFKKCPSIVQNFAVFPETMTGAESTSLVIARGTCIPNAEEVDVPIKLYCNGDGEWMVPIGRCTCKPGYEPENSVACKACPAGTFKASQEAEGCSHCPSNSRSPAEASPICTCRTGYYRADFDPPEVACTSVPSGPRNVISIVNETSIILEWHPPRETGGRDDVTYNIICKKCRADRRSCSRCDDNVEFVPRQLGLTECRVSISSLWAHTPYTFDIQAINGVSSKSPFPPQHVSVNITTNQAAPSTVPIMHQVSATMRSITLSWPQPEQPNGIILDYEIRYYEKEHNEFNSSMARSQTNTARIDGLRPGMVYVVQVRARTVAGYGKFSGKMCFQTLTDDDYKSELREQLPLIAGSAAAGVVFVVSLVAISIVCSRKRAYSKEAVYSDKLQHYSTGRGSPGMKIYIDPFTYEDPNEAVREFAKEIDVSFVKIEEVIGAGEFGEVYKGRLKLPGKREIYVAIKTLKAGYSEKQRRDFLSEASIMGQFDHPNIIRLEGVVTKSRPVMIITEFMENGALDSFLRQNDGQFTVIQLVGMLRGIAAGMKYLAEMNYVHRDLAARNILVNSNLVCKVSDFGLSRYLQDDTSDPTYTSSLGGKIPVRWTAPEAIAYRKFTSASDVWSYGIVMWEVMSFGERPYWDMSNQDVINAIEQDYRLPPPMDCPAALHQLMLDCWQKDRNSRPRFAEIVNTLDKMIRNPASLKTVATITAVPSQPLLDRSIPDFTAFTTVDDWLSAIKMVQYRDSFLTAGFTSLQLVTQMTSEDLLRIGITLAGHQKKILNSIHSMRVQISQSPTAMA
Method in brief: as §1

[4] = target: 140 purified human kinases (Homo sapiens, UniProt Q13233)
Method in brief: as §1

[5] = target: T2, 140 purified human kinases (Homo sapiens, UniProt Q14164); settings: IKKe
T2 sequence (Q14164 1-716): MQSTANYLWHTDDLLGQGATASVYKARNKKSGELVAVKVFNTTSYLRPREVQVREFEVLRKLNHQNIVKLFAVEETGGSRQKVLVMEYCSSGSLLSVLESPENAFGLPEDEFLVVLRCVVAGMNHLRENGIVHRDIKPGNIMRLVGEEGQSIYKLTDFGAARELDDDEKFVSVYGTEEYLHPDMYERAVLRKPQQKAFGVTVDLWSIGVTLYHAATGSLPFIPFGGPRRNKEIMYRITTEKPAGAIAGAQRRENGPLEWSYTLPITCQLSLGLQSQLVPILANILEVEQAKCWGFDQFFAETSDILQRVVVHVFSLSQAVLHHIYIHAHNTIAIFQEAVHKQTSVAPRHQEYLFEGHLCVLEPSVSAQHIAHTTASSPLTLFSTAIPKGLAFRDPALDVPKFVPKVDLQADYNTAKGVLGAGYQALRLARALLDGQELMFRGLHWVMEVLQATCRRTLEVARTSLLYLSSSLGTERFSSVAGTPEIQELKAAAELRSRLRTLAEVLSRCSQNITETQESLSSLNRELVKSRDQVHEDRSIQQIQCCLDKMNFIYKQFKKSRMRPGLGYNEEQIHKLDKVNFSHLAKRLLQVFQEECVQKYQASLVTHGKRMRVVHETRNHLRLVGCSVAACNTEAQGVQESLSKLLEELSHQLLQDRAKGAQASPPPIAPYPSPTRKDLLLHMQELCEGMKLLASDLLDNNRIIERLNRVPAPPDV
Method in brief: as §1

[6] = target: 140 purified human kinases (Homo sapiens, UniProt Q15746); settings: SmMLCK
Method in brief: as §1

[7] = target: 140 purified human kinases (Homo sapiens, UniProt Q16816); settings: PHK
Method in brief: as §1

[8] = target: 140 purified human kinases (Homo sapiens, UniProt Q9Y2K2)
Method in brief: as §1

[9] = target: 140 purified human kinases (Homo sapiens, UniProt Q9Y6E0)
Method in brief: as §1

Chain of 140 purified human kinases (Homo sapiens, UniProt P49760) (P49760 whole entry): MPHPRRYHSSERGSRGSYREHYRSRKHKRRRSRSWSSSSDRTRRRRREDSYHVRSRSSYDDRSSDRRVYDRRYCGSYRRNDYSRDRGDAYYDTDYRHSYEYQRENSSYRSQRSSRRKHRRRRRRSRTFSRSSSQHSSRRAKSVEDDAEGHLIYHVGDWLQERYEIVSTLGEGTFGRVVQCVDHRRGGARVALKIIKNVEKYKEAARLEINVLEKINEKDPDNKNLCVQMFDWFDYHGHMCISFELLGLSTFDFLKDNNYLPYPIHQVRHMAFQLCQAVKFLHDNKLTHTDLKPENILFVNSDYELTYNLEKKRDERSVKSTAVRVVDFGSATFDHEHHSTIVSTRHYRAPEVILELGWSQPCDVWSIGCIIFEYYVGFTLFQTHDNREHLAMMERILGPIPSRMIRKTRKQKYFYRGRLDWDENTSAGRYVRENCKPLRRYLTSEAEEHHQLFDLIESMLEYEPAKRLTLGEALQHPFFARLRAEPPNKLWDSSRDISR
Chain of 140 purified human kinases (Homo sapiens, UniProt Q15746) (Q15746 whole entry): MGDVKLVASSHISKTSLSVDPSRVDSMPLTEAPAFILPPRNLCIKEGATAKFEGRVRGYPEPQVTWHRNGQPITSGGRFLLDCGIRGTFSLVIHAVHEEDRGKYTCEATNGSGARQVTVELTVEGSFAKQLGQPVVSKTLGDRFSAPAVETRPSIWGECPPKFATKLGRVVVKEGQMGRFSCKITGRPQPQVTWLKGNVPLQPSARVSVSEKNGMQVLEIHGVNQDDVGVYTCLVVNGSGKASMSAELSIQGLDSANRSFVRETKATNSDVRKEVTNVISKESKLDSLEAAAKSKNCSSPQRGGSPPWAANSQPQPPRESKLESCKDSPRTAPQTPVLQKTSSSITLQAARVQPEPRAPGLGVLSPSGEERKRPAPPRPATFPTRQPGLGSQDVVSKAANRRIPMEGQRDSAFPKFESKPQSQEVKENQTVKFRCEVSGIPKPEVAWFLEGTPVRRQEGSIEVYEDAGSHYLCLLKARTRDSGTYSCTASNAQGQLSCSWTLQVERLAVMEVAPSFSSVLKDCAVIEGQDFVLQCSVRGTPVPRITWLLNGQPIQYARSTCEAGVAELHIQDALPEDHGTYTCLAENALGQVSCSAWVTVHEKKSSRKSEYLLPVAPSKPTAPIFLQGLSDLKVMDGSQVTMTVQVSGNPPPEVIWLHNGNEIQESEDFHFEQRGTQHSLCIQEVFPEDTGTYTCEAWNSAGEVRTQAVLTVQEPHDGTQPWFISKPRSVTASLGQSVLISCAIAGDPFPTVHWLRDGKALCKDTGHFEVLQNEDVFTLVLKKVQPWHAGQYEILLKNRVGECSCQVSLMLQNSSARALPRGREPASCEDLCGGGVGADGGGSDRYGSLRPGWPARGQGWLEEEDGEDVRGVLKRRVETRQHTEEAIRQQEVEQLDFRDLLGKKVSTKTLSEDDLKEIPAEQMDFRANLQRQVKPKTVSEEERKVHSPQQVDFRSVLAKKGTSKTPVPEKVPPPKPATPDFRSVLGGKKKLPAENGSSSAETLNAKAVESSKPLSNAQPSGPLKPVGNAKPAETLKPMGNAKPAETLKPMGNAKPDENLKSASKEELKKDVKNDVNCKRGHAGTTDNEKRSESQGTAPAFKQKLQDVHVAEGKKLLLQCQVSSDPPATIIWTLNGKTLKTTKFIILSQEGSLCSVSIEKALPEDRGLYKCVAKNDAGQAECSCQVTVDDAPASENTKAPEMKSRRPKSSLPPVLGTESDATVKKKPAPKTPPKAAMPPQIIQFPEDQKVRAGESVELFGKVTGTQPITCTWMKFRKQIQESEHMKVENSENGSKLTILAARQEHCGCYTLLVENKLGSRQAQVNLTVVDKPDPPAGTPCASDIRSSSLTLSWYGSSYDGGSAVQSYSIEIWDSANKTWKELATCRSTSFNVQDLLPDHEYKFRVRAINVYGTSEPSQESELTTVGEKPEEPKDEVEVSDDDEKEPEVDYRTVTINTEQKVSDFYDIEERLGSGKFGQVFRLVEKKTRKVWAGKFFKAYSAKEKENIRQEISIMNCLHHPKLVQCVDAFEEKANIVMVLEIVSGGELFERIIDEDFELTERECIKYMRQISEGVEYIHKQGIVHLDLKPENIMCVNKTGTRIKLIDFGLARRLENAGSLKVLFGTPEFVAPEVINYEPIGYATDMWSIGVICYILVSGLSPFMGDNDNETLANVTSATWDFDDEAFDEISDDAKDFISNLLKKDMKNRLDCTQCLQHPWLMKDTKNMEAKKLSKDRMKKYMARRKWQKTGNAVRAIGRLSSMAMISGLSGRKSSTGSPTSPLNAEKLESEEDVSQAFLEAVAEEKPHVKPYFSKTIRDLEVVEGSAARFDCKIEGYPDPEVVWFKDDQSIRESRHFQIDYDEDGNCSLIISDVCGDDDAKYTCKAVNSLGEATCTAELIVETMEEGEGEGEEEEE
Chain of 140 purified human kinases (Homo sapiens, UniProt Q9Y2K2) (Q9Y2K2 whole entry): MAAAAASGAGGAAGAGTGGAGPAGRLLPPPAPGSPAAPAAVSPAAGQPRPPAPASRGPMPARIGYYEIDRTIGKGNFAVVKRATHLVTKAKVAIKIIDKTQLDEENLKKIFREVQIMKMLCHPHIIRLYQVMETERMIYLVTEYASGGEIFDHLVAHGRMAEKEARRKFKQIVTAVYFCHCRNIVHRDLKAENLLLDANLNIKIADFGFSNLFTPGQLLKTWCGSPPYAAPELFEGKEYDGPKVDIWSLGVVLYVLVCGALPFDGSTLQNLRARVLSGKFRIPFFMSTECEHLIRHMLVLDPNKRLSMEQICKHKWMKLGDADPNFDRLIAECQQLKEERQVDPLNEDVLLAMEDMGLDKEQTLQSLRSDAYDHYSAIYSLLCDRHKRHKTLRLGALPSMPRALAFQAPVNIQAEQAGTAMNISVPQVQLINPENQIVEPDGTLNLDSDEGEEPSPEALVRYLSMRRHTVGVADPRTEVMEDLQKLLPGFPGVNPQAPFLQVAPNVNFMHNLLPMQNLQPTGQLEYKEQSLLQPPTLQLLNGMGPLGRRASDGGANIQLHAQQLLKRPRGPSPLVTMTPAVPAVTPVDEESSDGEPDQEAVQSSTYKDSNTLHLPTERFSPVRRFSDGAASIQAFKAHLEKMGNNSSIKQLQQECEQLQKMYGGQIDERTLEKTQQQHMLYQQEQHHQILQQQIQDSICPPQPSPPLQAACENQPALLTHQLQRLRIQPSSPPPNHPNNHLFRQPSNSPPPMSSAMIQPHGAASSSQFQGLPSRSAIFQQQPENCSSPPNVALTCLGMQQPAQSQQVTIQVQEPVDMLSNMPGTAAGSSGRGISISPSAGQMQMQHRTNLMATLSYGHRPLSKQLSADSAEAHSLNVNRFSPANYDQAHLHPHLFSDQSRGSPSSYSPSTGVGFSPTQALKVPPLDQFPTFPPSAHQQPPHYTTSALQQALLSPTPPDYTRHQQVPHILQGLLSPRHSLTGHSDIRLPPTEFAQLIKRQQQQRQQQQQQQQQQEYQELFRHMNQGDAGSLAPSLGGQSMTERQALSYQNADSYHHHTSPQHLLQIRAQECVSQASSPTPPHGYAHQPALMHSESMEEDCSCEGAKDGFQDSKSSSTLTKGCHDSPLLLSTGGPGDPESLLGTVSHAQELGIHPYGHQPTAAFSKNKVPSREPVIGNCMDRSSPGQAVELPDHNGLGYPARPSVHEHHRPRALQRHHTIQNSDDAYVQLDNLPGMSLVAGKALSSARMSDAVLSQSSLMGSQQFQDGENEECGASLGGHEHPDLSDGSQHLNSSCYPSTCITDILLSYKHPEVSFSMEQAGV
Chain of 140 purified human kinases (Homo sapiens, UniProt Q16816) (Q16816 whole entry): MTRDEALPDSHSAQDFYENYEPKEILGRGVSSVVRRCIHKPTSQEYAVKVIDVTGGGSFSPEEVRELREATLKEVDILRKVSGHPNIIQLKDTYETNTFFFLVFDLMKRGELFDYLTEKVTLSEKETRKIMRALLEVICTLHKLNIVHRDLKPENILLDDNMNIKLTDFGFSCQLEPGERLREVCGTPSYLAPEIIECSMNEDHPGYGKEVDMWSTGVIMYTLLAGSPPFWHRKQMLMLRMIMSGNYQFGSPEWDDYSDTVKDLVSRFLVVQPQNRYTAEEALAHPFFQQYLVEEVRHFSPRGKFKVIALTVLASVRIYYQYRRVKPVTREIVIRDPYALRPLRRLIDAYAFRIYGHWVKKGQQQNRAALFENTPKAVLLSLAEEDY
Chain of 140 purified human kinases (Homo sapiens, UniProt P36507) (P36507 whole entry): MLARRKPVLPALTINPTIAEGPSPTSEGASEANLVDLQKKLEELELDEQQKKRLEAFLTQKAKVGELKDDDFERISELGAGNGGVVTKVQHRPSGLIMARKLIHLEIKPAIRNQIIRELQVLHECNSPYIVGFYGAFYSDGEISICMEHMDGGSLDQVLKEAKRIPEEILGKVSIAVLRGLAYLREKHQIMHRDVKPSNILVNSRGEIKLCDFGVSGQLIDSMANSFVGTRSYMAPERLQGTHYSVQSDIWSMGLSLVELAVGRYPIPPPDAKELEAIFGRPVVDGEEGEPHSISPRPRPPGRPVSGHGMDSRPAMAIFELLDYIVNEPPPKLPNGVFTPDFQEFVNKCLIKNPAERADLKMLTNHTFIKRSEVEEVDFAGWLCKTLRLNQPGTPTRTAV
Chain of 140 purified human kinases (Homo sapiens, UniProt Q9Y6E0) (Q9Y6E0 whole entry): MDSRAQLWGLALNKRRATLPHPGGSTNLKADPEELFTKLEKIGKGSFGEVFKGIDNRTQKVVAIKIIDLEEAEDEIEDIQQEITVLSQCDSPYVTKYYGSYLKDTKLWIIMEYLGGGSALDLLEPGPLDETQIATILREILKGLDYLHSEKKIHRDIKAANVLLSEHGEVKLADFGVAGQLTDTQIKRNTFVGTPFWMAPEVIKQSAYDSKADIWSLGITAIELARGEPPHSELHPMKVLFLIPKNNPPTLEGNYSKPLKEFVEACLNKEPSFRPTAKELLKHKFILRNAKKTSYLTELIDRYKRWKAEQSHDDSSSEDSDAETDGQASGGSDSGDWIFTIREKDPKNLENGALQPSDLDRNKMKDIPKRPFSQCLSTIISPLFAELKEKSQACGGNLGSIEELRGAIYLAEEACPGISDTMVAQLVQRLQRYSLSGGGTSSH

[Cu+2].[Cu+2].[Cu+2].c1ccc(-c2csc(NCCN(CCNc3nc(-c4ccccn4)cs3)CCNc3nc(-c4ccccn4)cs3)n2)nc1.c1ccc(-c2csc(NCCN(CCNc3nc(-c4ccccn4)cs3)CCNc3nc(-c4ccccn4)cs3)n2)nc1 [[L2Cu3]6+]
% Inhibition Run 1 ([1]; MKK2): 70.5% | % Inhibition Run 2 ([1]; MKK2): 79% | % Inhibition, Mean ([1]; MKK2): 75% | mean % activity ([1]; MKK2): 25% | % activity ([1]; MKK2, Run 1): 29.5% | % activity ([1]; MKK2, Run 2): 21% | % Activation, Mean value ([2]; CLK2): 3% | % Inhibition Run 1 ([2]; CLK2): -9.8% | % Inhibition Run 2 ([2]; CLK2): 3.9% | % Inhibition, Mean ([2]; CLK2): -3% | mean % activity ([2]; CLK2): 103% | % activity ([2]; CLK2, Run 1): 109.8% | % activity ([2]; CLK2, Run 2): 96.1% | % Activation, Mean value ([3]; EPH-B1): 14% | % Inhibition Run 1 ([3]; EPH-B1): -9.9% | % Inhibition Run 2 ([3]; EPH-B1): -17.3% | % Inhibition, Mean ([3]; EPH-B1): -14% | mean % activity ([3]; EPH-B1): 114% | % activity ([3]; EPH-B1, Run 1): 109.9% | % activity ([3]; EPH-B1, Run 2): 117.3% | % Activity Run 1 ([3]; EPH-B1, 10 µM): 109.90% | % Activity Run 2 ([3]; EPH-B1, 10 µM): 117.30% | % Inhibition Run 1 ([4]; MEKK1): 48.4% | % Inhibition Run 2 ([4]; MEKK1): 57.6% | % Inhibition, Mean ([4]; MEKK1): 53% | mean % activity ([4]; MEKK1): 47% | % activity ([4]; MEKK1, Run 1): 51.6% | % activity ([4]; MEKK1, Run 2): 42.4% | % Inhibition Run 1 [5]: 69.9% | % Inhibition Run 2 [5]: 53.3% | % Inhibition, Mean [5]: 62% | mean % activity [5]: 38% | % activity ([5]; Run 1): 30.1% | % activity ([5]; Run 2): 46.7% | % Inhibition Run 1 [6]: 59.8% | % Inhibition Run 2 [6]: 52.2% | % Inhibition, Mean [6]: 56% | mean % activity [6]: 44% | % activity ([6]; Run 1): 40.2% | % activity ([6]; Run 2): 47.8% | % Inhibition Run 1 [7]: 59.9% | % Inhibition Run 2 [7]: 49.3% | % Inhibition, Mean [7]: 55% | mean % activity [7]: 45% | % Inhibition Run 1 ([8]; SIK3): 48.7% | % Inhibition Run 2 ([8]; SIK3): 52.1% | % Inhibition, Mean ([8]; SIK3): 50% | mean % activity ([8]; SIK3): 50% | % activity ([8]; SIK3, Run 1): 51.3% | % activity ([8]; SIK3, Run 2): 47.9% | % Inhibition Run 1 ([9]; MST3): 9.9% | % Inhibition Run 2 ([9]; MST3): -5.7% | % Inhibition, Mean ([9]; MST3): 2% | mean % activity ([9]; MST3): 98% | % activity ([9]; MST3, Run 1): 90.1% | % activity ([9]; MST3, Run 2): 105.7%

CC(=O)[O-].CC(=O)[O-].CC(=O)[O-].CC(=O)[O-].CC(=O)[O-].CC(=O)[O-].[Zn+2].[Zn+2].[Zn+2].c1ccc(-c2csc(NCCN(CCNc3nc(-c4ccccn4)cs3)CCNc3nc(-c4ccccn4)cs3)n2)nc1.c1ccc(-c2csc(NCCN(CCNc3nc(-c4ccccn4)cs3)CCNc3nc(-c4ccccn4)cs3)n2)nc1 [[L2Zn3]6+]
% Inhibition, Mean ([1]; MKK2): 42% | % Inhibition, Run 1 / Run 2 ([1]; MKK2): 40% and 45% | mean % activity ([1]; MKK2): 58% | % activity ([1]; MKK2, duplicate runs): 60% and 55% | % Inhibition, Mean ([2]; CLK2): 44% | % Inhibition, Run 1 / Run 2 ([2]; CLK2): 43% and 45% | mean % activity ([2]; CLK2): 56% | % activity ([2]; CLK2, duplicate runs): 57% and 55% | % Inhibition, Mean ([3]; EPH-B1): -0.2% | % Inhibition, Run 1 / Run 2 ([3]; EPH-B1): 4% and -4.6% | mean % activity ([3]; EPH-B1): 100% | % activity ([3]; EPH-B1, duplicate runs): 96% and 105% | % Inhibition, Mean ([4]; MEKK1): 17% | mean % activity ([4]; MEKK1): 83% | % activity ([4]; MEKK1, duplicate runs): 75% and 92% | % Inhibition, Mean [5]: 21% | mean % activity [5]: 79% | % activity ([5]; duplicate runs): 69% and 89% | % Inhibition, Mean [6]: 3.75% | mean % activity [6]: 96% | % activity ([6]; duplicate runs): 76% and 117% | % Inhibition, Mean [7]: 64% | mean % activity [7]: 36% | % activity ([7]; duplicate runs): 32% and 39% | % Inhibition, Mean ([8]; SIK3): 39% | % Inhibition, Run 1 / Run 2 ([8]; SIK3): 45% and 33% | mean % activity ([8]; SIK3): 61% | % activity ([8]; SIK3, duplicate runs): 55% and 67% | % Inhibition, Mean ([9]; MST3): 0.4% | % Inhibition, Run 1 / Run 2 ([9]; MST3): -3.6% and 4.4% | mean % activity ([9]; MST3): 100% | % activity ([9]; MST3, duplicate runs): 104% and 96%

Reference: PMC8222254, “Self-assembly of an anion receptor with metal-dependent kinase inhibition and potent in vitro anti-cancer properties” (Nature Communications, 2021)
